Experimental data published in article PMC12406652 (Antimicrobial Agents and Chemotherapy, 2025).

What was measured:
[1] = human, in vivo
[2] = in vivo
[3] = human, in vivo; for AUCinf, geometric LS mean, Reference / Cmax, geometric LS mean, Reference: 400 mg

Structure (SMILES)	Change in geometric mean AUCtau from the first to the last dose [1]	Fe0-8 recovered in urine, of the last dose [2]	AUCinf, geometric LS mean, Test [3] [ng·h/mL]	Cmax, geometric LS mean, Test [3] [ng/mL]	AUCinf, geometric LS mean, Reference [3] [ng·h/mL]	Cmax, geometric LS mean, Reference [3] [ng/mL]
Nc1nc(/C(=C/CC(=O)O)C(=O)N[C@@H]2C(=O)N3C(C(=O)O)=CCS[C@H]23)cs1 (relative stereo) [Cis-ceftibuten, cis-ceftibuten]	44-52%	50-68%	79030	15410	90090	17560
Nc1nc(/C(=C\CC(=O)O)C(=O)N[C@@H]2C(=O)N3C(C(=O)O)=CCS[C@H]23)cs1 (relative stereo) [Trans-ceftibuten, trans-ceftibuten]	64-75%	20-23%	8946	1319	10400	1552
